According to patent publication US20230181564A1, “Potent Tetrahydroquinolone Eliminates Apicomplexan Parasites” (The University of Chicago, priority 2020, published 2023):

Tests used:
[1] = tested on: T. gondii mitochondrial membrane potential (cytochrome bc); assay: Mitochondrial membrane potential by the safranine method (T. gondii, compared with HFF); assay type: cell-based, Toxoplasma gondii; conditions: permeabilized tachyzoites, safranin O
Experimental: T.gondii and HFF Mitochondrial Membrane Potential Measurements—the mitochondrial membrane potential was measured by the safranine method according to Vercesi et al, 1998). Freshly egressed T. gondii tachyzoites were filtered and washed twice with intracellular buffer (125 mM sucrose, 65 mM KCl, 10 mM HEPES-KOH buffer, pH 7.2, 1 mM MgCl2 and 2.5 mM potassium phosphate). After washing, the parasites were resuspended in the same buffer at 10^9/ml. An aliquot of 50 μL of this suspension was added to a cuvette containing Safranin 0, 2.5 μM and Succinate 1 mM in final volume of 2 mL of the intracellular buffer. The fluorescence was measured with a Hitachi 7000 spectrofluorometer with setting Ex. 495/Em. 586. Once the baseline fluorescence is testable, 30 μM digitonin was added to permeabilize the parasites. 85 seconds after permeabilization, the THQ derivatives, dissolved in DMSO, were added. 5 μM of FCCP (Carbonyl cyanide-4-(trifluoromethoxy) phenylhydrazone) was used as an uncoupler reference for calculations and its effect was considered 100%. Similar conditions for measuring the mitochondrial potential of mammalian cells were used with the following changes: the mammalian cells were re-suspended at 10^8/ml. 50 μl of mammalian cells was also used for each run in a cuvette with […]. The substrate used for mammalian cells was 5 mM glutamate and 5 mM malate. A higher concentration of digitonin (50 μM) was used to permeabilize the mammalian cells. The compounds were added at about 400 seconds after permeabilization. Each experiment was repeated at least three times in duplicates. Statistical analysis, unpaired student t test, was performed using GraphPad Prism 8.0 (GraphPad Software, Inc., San Diego, Calif.).
Mitochondrial membrane potential measurements were performed with permeabilized T.gondii tachyzoites in suspension using safranin O, which loads into polarized membranes. T. gondii tachyzoites were permeabilized with digitonin to allow the mitochondrial substrate succinate to cross the membrane and energize the mitochondrion. The fluorescence of safranin O, which loads into energized mitochondria was used to measure the membrane potential. The energized state of the mitochondrion is observed by a decrease in fluorescence (FIGS. 3A,C,E). Trifluoromethoxy carbonylcyanide phenylhydrazone (FCCP) was used to depolarize the membrane, which causes the fluorescence to go up as shown in FIG. 3A. JAG21 depolarized the membrane potential even at concentrations as low as 2 nM (FIG. 3C,D). JAG21 and Atovaquone had similar effects on the mitochondrial membrane potential (FIG. 3D). […] The effect of these THQ compounds against the T. gondii mitochondrial membrane potential was greater than the effect on the human foreskin fibroblast membrane potential (FIG. 3E,F). […]

T. gondii Me49 strain = assay: Established chronic Me49 infection in Balb/C mice, brain cysts; assay type: in vivo, Toxoplasma gondii; conditions: treatment from day 30 after Me49 infection, IP daily for 14 days; p<0.03, p<0.01
Experimental: In separate experiments, Balb/C mice were infected IP with 20×10^3 T. gondii Me49 strain tachyzoites. In these separate studies of mice with established chronic infection, after 30 days, IP treatment with JAG21 was begun each day for 14 days. JAG21 was dissolved in DMSO and administered IP in a total volume of 0.05 mL. In experiments when tafenoquine was administered alone or with JAG21 in some groups 3 mg/kg tafenoquine was administered once on day −1 from when JAG21 treatment was initiated. Cysts in brain were quantitated on day 30, 16 days after discontinuing JAG21. Immunoperoxidase staining was performed. Parasite burden was quantitated in two ways. The first was using a positive pixel count algorithm of Aperio ImageScope software. Positive pixels were normalized to tissue area (mm^2). Briefly, automated quantitation was done by counting positive pixels per square area. The entire brain in one section was scanned for each mouse. The Cyst burden was quantitated as units of positive pixels per mm2. The average±S.E.M. numbers of mm2 per slide quantitated was 30.2±1.6 square mm per mouse for this quantification. […] Cysts on each slide for each condition in two biological replicate experiments were also quantitated by 2 separate observers independently and results compared with automated counting, separately.

SMILES: Cc1[nH]c2c(c(=O)c1-c1ccc(Oc3ccc(OC(F)(F)F)cc3)cc1)CCCC2 [JAG021, 2-methyl-3-(4-(4-(trifluoromethoxy)phenoxy)phenyl)-5,6,7,8-tetrahydroquinolin-4-one]
- Concentration depolarizing the T. gondii mitochondrial membrane potential [1]: ≤ 2 nM
- Normal appearing cysts, free organisms and immunoperoxidase stained cysts in brain (T. gondii Me49 strain): marked, statistically significant reduction
